In brackets after ≈: the same amount, converted by molar mass.

This passage reports MIC results from ChEMBL document CHEMBL1154408, “Molecular epidemiology of imipenem-resistant Acinetobacter haemolyticus and Acinetobacter baumannii isolates carrying plasmid-mediated OXA-40 from a Portuguese hospital” (2007).

Assay [1] deals with Acinetobacter haemolyticus. Kind of assay: Antibacterial activity against Acinetobacter haemolyticus expressing carbapenemase-encoding blaOXA-40 gene by Etest method. The class given is functional.
In assay [2] the test system is Acinetobacter baumannii. In words: Antibacterial activity against Acinetobacter baumannii A clone expressing carbapenemase-encoding blaOXA-40 gene by Etest method. The assay is classed as functional.
In assay [3] the test system is Acinetobacter baumannii. Kind of assay: Antibacterial activity against Acinetobacter baumannii B clone by Etest method. The assay is classed as functional.
The subject of assay [4] is Acinetobacter baumannii. Kind of assay: Antibacterial activity against Acinetobacter baumannii C clone by Etest method. The assay is classed as functional.
The subject of assay [5] is Acinetobacter baumannii. In words: Antibacterial activity against Acinetobacter baumannii A clone expressing carbapenemase-encoding blaOXA-40 gene by agar dilution method. The class given is functional, organism-based. A general note: In agar dilution the substance is mixed into plates at graded concentrations.
In assay [6] the test system is Acinetobacter baumannii. Kind of assay: Antibacterial activity against Acinetobacter baumannii B clone by agar dilution method. The assay is classed as functional, organism-based.
The test system of assay [7] is Acinetobacter baumannii. Kind of assay: Antibacterial activity against Acinetobacter baumannii C clone by agar dilution method. The assay is classed as functional, organism-based.
In assay [8] the test system is Acinetobacter haemolyticus. In words: Antibacterial activity against Acinetobacter haemolyticus expressing carbapenemase-encoding blaOXA-40 gene by agar dilution method. The assay is classed as functional, organism-based.

Compound `CO/N=C(\C(=O)N[C@@H]1C(=O)N2C(C(=O)[O-])=C(C[N+]3(C)CCCC3)CS[C@H]12)c1csc(N)n1` displayed an MIC in assay [1] of 4 µg/mL (≈ 8.32 µM).

For `CC1(C)S[C@@H]2[C@H](NC(=O)[C@H](N)c3ccc(O)cc3)C(=O)N2[C@H]1C(=O)O` [AMOXICILLIN], the minimum inhibitory concentration (MIC) in the assay with Acinetobacter baumannii [2] is ≥ 256 µg/mL; in the assay on Acinetobacter baumannii [3], > 64 µg/mL; with Acinetobacter baumannii [4], 128 µg/mL (≈ 350 µM); in assay [1], ≥ 256 µg/mL.

As for `C[C@H]1[C@H](NC(=O)/C(=N\OC(C)(C)C(=O)O)c2csc(N)n2)C(=O)N1S(=O)(=O)O` [AZTREONAM], the MIC in assay [1] worked out at 4 µg/mL (≈ 9.19 µM).

`CO[C@@]1(NC(=O)Cc2cccs2)C(=O)N2C(C(=O)O)=C(COC(N)=O)CS[C@@H]21` [CEFOXITIN]: the minimal inhibitory concentration (MIC) against Acinetobacter baumannii [2] was ≥ 256 µg/mL; with Acinetobacter baumannii [3], ≥ 256 µg/mL; in the assay on Acinetobacter baumannii [4], ≥ 256 µg/mL; in assay [1], 32 µg/mL (≈ 74.9 µM).

As to `CC(C)(O/N=C(\C(=O)N[C@@H]1C(=O)N2C(C(=O)[O-])=C(C[n+]3ccccc3)CS[C@H]12)c1csc(N)n1)C(=O)O` [CEFTAZIDIME], the MIC is 256 µg/mL (≈ 468 µM) against Acinetobacter baumannii [2], 4 µg/mL (≈ 7.32 µM) in the assay with Acinetobacter baumannii [3], 4 µg/mL (≈ 7.32 µM) with Acinetobacter baumannii [4] and 4 µg/mL (≈ 7.32 µM) in assay [1].

With `C[C@@H](O)[C@H]1C(=O)N2C(C(=O)O)=C(SCCNC=N)C[C@H]12` [IMIPENEM ANHYDROUS], the MIC was ≥ 32 µg/mL in the assay on Acinetobacter baumannii [2], ≥ 32 µg/mL in the assay on Acinetobacter baumannii [3], 32 µg/mL (≈ 107 µM) with Acinetobacter baumannii [4] and ≥ 32 µg/mL in assay [1].

`C[C@@H](O)[C@H]1C(=O)N2C(C(=O)O)=C(S[C@@H]3CN[C@H](C(=O)N(C)C)C3)[C@H](C)[C@H]12` [MEROPENEM]: the MIC in the assay on Acinetobacter baumannii [2] was ≥ 32 µg/mL; in the assay on Acinetobacter baumannii [3] it was 2 µg/mL (≈ 5.22 µM); with Acinetobacter baumannii [4] it was 4 µg/mL (≈ 10.4 µM); in assay [1] it was ≥ 32 µg/mL.

Take `CCN1CCN(C(=O)N[C@@H](C(=O)N[C@@H]2C(=O)N3[C@@H]2SC(C)(C)[C@@H]3C(=O)O)c2ccccc2)C(=O)C1=O` [PIPERACILLIN]: the MIC in the assay with Acinetobacter baumannii [2] was ≥ 256 µg/mL; against Acinetobacter baumannii [3] it was ≥ 256 µg/mL; with Acinetobacter baumannii [4], 64 µg/mL (≈ 124 µM); in assay [1] it was ≥ 256 µg/mL.

With `CC1(C)S[C@@H]2[C@H](NC(=O)[C@H](C(=O)O)c3ccsc3)C(=O)N2[C@H]1C(=O)O` [TICARCILLIN], the MIC (in the assay with Acinetobacter baumannii [2]; in the assay with Acinetobacter baumannii [3]; against Acinetobacter baumannii [4]; in assay [1]) was ≥ 256 µg/mL in each case.

COLISTIN: the MIC was > 16 µg/mL against Acinetobacter baumannii [5], > 16 µg/mL in the assay with Acinetobacter baumannii [6], 2 µg/mL in the assay with Acinetobacter baumannii [7] and 4 µg/mL in assay [8].

By MIC is commonly meant the smallest concentration in the dilution series that meets the test's criterion for growth inhibition. A higher MIC goes with a need for much substance.
